The term IC50 denotes the point on the concentration scale where inhibition reaches its midpoint.

This note sets out measurements from US20110033393A1, “Hydrazone Compounds and Their Use” (priority 2009, published 2011).

Each structure is given as a SMILES string.

In this assay the target is T1, human TRPM5 ion channel (Homo sapiens, UniProt Q9NZQ8).
T1 sequence (Q9NZQ8 1-1165): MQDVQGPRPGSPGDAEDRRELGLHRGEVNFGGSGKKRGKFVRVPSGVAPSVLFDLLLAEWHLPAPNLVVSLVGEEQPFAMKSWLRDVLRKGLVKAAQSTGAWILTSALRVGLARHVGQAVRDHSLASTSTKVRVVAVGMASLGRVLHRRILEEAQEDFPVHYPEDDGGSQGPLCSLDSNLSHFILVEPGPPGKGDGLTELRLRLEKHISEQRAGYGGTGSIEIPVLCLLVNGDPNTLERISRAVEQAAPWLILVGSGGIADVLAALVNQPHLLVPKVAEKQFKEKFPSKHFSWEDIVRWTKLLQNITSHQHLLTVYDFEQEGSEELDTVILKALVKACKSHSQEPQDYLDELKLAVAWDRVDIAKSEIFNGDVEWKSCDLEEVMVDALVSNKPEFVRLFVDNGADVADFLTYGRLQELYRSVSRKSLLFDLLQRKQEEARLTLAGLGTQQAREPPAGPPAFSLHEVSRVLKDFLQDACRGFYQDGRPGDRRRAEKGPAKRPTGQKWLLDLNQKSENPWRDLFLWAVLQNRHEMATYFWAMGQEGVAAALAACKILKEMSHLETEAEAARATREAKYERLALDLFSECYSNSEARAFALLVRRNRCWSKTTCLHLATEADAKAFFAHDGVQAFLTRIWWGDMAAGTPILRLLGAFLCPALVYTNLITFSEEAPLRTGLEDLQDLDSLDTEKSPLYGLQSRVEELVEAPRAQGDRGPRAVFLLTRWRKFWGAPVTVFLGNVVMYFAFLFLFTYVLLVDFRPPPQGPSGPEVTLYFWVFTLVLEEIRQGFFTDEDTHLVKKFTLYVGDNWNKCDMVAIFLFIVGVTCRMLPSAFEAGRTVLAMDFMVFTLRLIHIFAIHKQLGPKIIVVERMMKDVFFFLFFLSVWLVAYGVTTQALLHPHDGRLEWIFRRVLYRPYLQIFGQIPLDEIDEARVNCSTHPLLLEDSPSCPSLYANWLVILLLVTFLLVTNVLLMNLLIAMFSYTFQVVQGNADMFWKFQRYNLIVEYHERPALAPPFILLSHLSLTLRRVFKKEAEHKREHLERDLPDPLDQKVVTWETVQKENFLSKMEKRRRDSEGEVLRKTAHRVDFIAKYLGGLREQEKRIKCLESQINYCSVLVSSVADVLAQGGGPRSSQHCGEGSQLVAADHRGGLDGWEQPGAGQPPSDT
In words: FLIPR-based assay for membrane potential and calcium mobilization (TRPM5 inhibiting activity). Format: cell-based. The following applies: live cells, 30° C., read-out: hTrpM5 IC50. How it is done:
The activity of compounds of the present invention on human TRPM5 ion channel was measured using the FLIPR-based (fluorescent imaging plate reader) assay for membrane potential and calcium mobilization described in U.S. Patent Application Publication No. 2008/0249189 A1 in live cells, wherein the assay is performed at 30° C. Determinations of affinity and efficacy were derived from measurements of TRPM5 activity over a range of compound concentrations. The concentration range was achieved by 10 serial dilutions (either 2-fold or 3-fold decrements) from a maximum concentration of no greater that 100 μM. Curver fitting was performed on the resulting data to yield concentration-effect functions, from which the half-maximal inhibitory concentration (IC50) was derived for all the tested compounds. The IC50 values were considered to be accurate reflections of affinity between the compounds and TRPM5.
Representative compounds of the present invention have been tested in the FLIPR assay for TRPM5 inhibiting activity, which is described in detail above.
(Calcium flux is commonly read through the fluorescence of an indicator in the cells.)
Consider `Cc1cn(CCC(=O)N/N=C/c2ccc3c(c2)OCCN3C)c2ccccc12` [Example 60, 3-(3-methyl-1H-indol-1-yl)-N′-((4-methyl-3,4-dihydro-2H-benzo[b][1,4]-oxazin-7-yl)methylene)propanehydrazide], for which the IC50 was found to be 750 nM.
As to `COc1ccc(/C=N/NC(=O)CCn2cc(C)c3c(OC)cccc32)cc1OC` [Example 46, N′-(3,4-Dimethoxybenzylidene)-3-(4-methoxy-3-methyl-1H-indol-1-yl)propanehydrazide], the IC50 turned out to be 6 nM.
As to `COc1ccc(C=NNC(=O)[C@@H]2C[C@H]2c2cnc3ccccc3c2)cc1OC` (relative stereo) [Example 38, trans-N′-(3,4-Dimethoxybenzylidene)-2-(quinolin-3-yl)cyclopropanecarbohydrazide], the IC50 was determined as 610 nM.
Take `COc1ccc(/C=N/NC(=O)CCn2cc(C)c3c(CO)cccc32)cc1OC` [Example 50, N′-(3,4-Dimethoxybenzylidene)-3-(4-(hydroxymethyl)-3-methyl-1H-indol-1-yl)propanehydrazide]: the IC50 turned out to be 260 nM.
For `Cc1cn(CCC(=O)N/N=C/c2ccc3ncccc3n2)c2ccccc12` [Example 33, N′-((1,5-Naphthyridin-2-yl)methylene)-3-(3-methyl-1H-indol-1-yl)propanehydrazide], the IC50 was found to be 1300 nM.
With `COc1ccc(/C=N/NC(=O)CSc2ccccc2)cc1OC` [Example 55, N′-(3,4-dimethoxybenzylidene)-2-(phenylthio)acetohydrazide], the IC50 came to 660 nM.
On to `Cc1cn(CCC(=O)N/N=C/c2ccc3ncccc3c2)c2ccccc12` [Example 59, 3-(3-methyl-1H-indol-1-yl)-N′-(quinolin-6-ylmethylene)-propanehydrazide], for which the IC50 worked out at 340 nM.
As for `Cc1cn(CCC(=O)NN=Cc2ccc3nnccc3c2)c2ccccc12` [Example 34, N′-(Cinnolin-6-ylmethylene)-3-(3-methyl-1H-indol-1-yl)propanehydrazide], the 50% inhibitory concentration (IC50) amounted to 430 nM.
The result for `COc1ccc(/C=N/NC(=O)CCn2ccc3ccccc32)cc1OC` [Example 54, N′-(3,4-dimethoxybenzylidene)-3-(1H-indol-1-yl)propanehydrazide] reads 170 nM; that for `COc1cccc([C@@H]2C[C@H]2C(=O)N/N=C/c2cc(C)c3ncccc3c2)n1` (relative stereo) [Example 42, trans-2-(6-Methoxypyridin-2-yl)-N′-((8-methylquinolin-6-yl)methylene)cyclopropanecarbohydrazide], 410 nM; that for `COc1ccc(/C=N/N(C)C(=O)C2CC2c2ccccc2)cc1OC` (stereo not drawn) [Example 9, trans-N′-(3,4-Dimethoxybenzylidene)-N-methyl-2-phenylcyclopropanecarbohydrazide], 5000 nM.
`COc1ccc(/C=N/NC(=O)CCc2cn(C)c3ccccc23)cc1OC` [Example 2, N′-(3,4-dimethoxybenzylidene)-3-(1-methyl-1H-indol-3-yl)propanehydrazide]: the IC50 came to 51 nM.
Consider `COc1ccc(/C=N/NC(=O)CCn2ccc3c(C)cccc32)cc1OC` [Example 57, N′-(3,4-dimethoxybenzylidene)-3-(4-methyl-1H-indol-1-yl)propanehydrazide], for which the IC50 came to 12 nM.
For the molecule `Cc1cc(C=NNC(=O)C2CC2c2ccccc2)cc2cccnc12` (single isomer, unassigned) [11 (E2), trans-N′-((8-Methylquinolin-6-yl)methylene)-2-phenylcyclopropanecarbohydrazide, E2 enantiomer], the IC50 worked out at 240 nM.
On to `Cc1cn(CCC(=O)N/N=C/c2ccc3nccnc3c2)c2ccccc12` [Example 32, 3-(3-Methyl-1H-indol-1-yl)-N′-(quinoxalin-6-ylmethylene)propanehydrazide], for which the IC50 is 2200 nM.
The result for `Cc1ccc2cc(/C=N/NC(=O)CCn3cc(C)c4ccccc43)ccc2n1` [Example 69, 3-(3-methyl-1H-indol-1-yl)-N′-((2-methylquinolin-6-yl)methylene)-propanehydrazide] reads greater than 30000 nM.
On to `O=C(N/N=C/c1cc(F)c2ncccc2c1)C1CC1c1ccccc1` (stereo not drawn) [Example 44, trans-N′-((8-Fluoroquinolin-6-yl)methylene)-2-phenylcyclopropanecarbohydrazide], for which the IC50 stood at 550 nM.
The result for `COc1cc(/C=N/NC(=O)CCn2cc(C)c3c(C)cccc32)ccc1OCc1ccccc1` [Example 12, N′-(4-(Benzyloxy)-3-methoxybenzylidene)-3-(3,4-dimethyl-1H-indol-1-yl)propanehydrazide] reads 80 nM; that for `Cc1cc(/C=N/NC(=O)[C@@H]2C[C@H]2c2cccc(Cl)c2)cc2cccnc12` (relative stereo) [Example 29, trans-2-(3-Chlorophenyl)-N′-((8-methylquinolin-6-yl)methylene)cyclopropanecarbohydrazide], 800 nM.
The result for `COc1cc(/C=N/NC(=O)CCn2cc(C)c3c(C)cccc32)ccc1OCc1ccccn1` [Example 13, 3-(3,4-Dimethyl-1H-indol-1-yl)-N′-(3-methoxy-4-(pyridin-2-ylmethoxy)benzylidene)propanehydrazide] reads 66 nM; that for `COc1ccc(/C=N/NC(=O)[C@@H]2C[C@H]2c2ccc3ccccc3n2)cc1OC` (relative stereo) [Example 36, trans-N′-(3,4-Dimethoxybenzylidene)-2-(quinolin-2-yl)cyclopropanecarbohydrazide], 930 nM.
Take `COc1cc(C)c2cc(/C=N/NC(=O)CCn3cc(C)c4ccccc43)ccc2n1` [Example 52, N′-((2-Methoxy-4-methylquinolin-6-yl)methylene)-3-(3-methyl-1H-indol-1-yl)propanehydrazide]: the IC50 was 2000 nM.
The result for `COc1ccc(/C=N/NC(=O)NCCc2ccccc2)cc1OC` [Example 65, 2-(3,4-dimethoxybenzylidene)-N-phenethylhydrazinecarboxamide] reads 200 nM.
With `COc1ccc(/C=N/NC(=O)C(C)Sc2cccc(Cl)c2)cc1OC` (stereo not drawn) [Example 1, 2-(3-Chlorophenylthio)-N′-(3,4-dimethoxybenzylidene)propanehydrazide] the figure was 55 nM.
The result for `COc1cc(/C=N/NC(=O)CCn2cc(C)c3c(C)cccc32)ccc1OCc1cnccn1` [Example 21, 3-(3,4-Dimethyl-1H-indol-1-yl)-N′-(3-methoxy-4-(pyrazin-2-ylmethoxy)benzylidene)propanehydrazide] reads 60 nM; that for `O=C(N/N=C/c1cc(Cl)c2ncccc2c1)[C@@H]1C[C@H]1c1cccc(Cl)c1` (relative stereo) [Example 28, trans-2-(3-Chlorophenyl)-N′-((8-chloroquinolin-6-yl)methylene)cyclopropanecarbohydrazide], 650 nM; that for `COc1cc(/C=N/NC(=O)CCn2cc(C)c3c(C)cccc32)cc(Cl)c1OC` [Example 15, N′-(3-Chloro-4,5-dimethoxybenzylidene)-3-(3,4-dimethyl-1H-indol-1-yl)propanehydrazide], 38 nM.
With `Cc1cc(/C=N/NC(=O)C2CC2c2ccc(Cl)cn2)cc2cccnc12` (stereo not drawn) [Example 43, trans-2-(5-Chloropyridin-2-yl)-N′-((8-methylquinolin-6-yl)methylene)cyclopropanecarbohydrazide], the half-inhibitory concentration (IC50) is 5400 nM.
With `Cc1ccnc2ccc(/C=N/NC(=O)CCn3cc(C)c4ccccc43)cc12` [Example 62, 3-(3-methyl-1H-indol-1-yl)-N′-((4-methylquinolin-6-yl)methylene)-propanehydrazide] the figure was 370 nM.
The result for `Cc1cc(/C=N/NC(=O)C2CC2c2ccc(F)cc2)cc2cccnc12` (stereo not drawn) [Example 40, trans-2-(4-Fluorophenyl)-N′-((8-methylquinolin-6-yl)methylene)cyclopropanecarbohydrazide] reads 510 nM.
